Reference: PMC5053573, “Structure-Based Design of Tetrahydroisoquinoline-7-carboxamides as Selective Discoidin Domain Receptor 1 (DDR1) Inhibitors” (Journal of Medicinal Chemistry, 2016)

Columns and labels:
Assay in all cases: biochemical
Conditions in all cases: read-out: %Ctrl @ 1000nM
[1] = target: ABL1(F317L)-phosphorylated (Homo sapiens, UniProt P00519, F317L)
ACVR2B = ACVR2B (Homo sapiens, UniProt Q13705)
ANKK1 = ANKK1 (Homo sapiens, UniProt Q8NFD2)
AURKC = AURKC (Homo sapiens, UniProt Q9UQB9)
BRAF = BRAF (Homo sapiens, UniProt P15056)
BTK = BTK (Homo sapiens, UniProt Q06187)
CAMK1 = CAMK1 (Homo sapiens, UniProt Q14012)
CDC2L5 = target: T1, CDC2L5 (Homo sapiens, UniProt Q14004)
T1 construct: gene CDK13

CDK9 = CDK9 (Homo sapiens, UniProt P50750)
DAPK1 = DAPK1 (Homo sapiens, UniProt P53355)
EGFR(E746-A750del) = EGFR(E746-A750del) (Homo sapiens, UniProt P00533, DEL746-750)
EPHB2 = EPHB2 (Homo sapiens, UniProt P29323)
ERK3 = target: T2, ERK3 (Homo sapiens, UniProt Q16659)
T2 construct: gene MAPK6

FGFR1 = FGFR1 (Homo sapiens, UniProt P11362)
FLT4 = FLT4 (Homo sapiens, UniProt P35916)
GCN2(Kin.Dom.2,S808G) = target: T3, GCN2(Kin.Dom.2,S808G) (Homo sapiens, UniProt Q9P2K8, S808G)
T3 construct: gene EIF2AK4

GRK4 = GRK4 (Homo sapiens, UniProt P32298)
HIPK1 = HIPK1 (Homo sapiens, UniProt Q86Z02)
IKK-beta = target: T4, IKK-beta (Homo sapiens, UniProt O14920)
T4 construct: gene IKBKB

JNK1 = target: T5, JNK1 (Homo sapiens, UniProt P45983)
T5 construct: gene MAPK8

KIT(D816H) = KIT(D816H) (Homo sapiens, UniProt P10721, D816H)
LRRK2(G2019S) = LRRK2(G2019S) (Homo sapiens, UniProt Q5S007, G2019S)
MEK1 = target: T6, MEK1 (Homo sapiens, UniProt Q02750)
T6 construct: gene MAP2K1

MLK2 = target: T7, MLK2 (Homo sapiens, UniProt Q02779)
T7 construct: gene MAP3K10

NLK = NLK (Homo sapiens, UniProt Q9UBE8)
PIK3CG = PIK3CG (Homo sapiens, UniProt P48736)
PIP5K2C = target: T8, PIP5K2C (Homo sapiens, UniProt Q8TBX8)
T8 construct: gene PIP4K2C

PRKCE = PRKCE (Homo sapiens, UniProt Q02156)
PRKCH = PRKCH (Homo sapiens, UniProt P24723)
RIOK3 = RIOK3 (Homo sapiens, UniProt O14730)
ROS1 = ROS1 (Homo sapiens, UniProt P08922)
[2] = target: RPS6KA4(Kin.Dom.2-C-terminal) (Homo sapiens, UniProt O75676)
SIK = target: T9, SIK (Homo sapiens, UniProt P57059)
T9 construct: gene SIK1

STK35 = STK35 (Homo sapiens, UniProt Q8TDR2)
TBK1 = TBK1 (Homo sapiens, UniProt Q9UHD2)
Chain of TBK1 (Q9UHD2 whole entry): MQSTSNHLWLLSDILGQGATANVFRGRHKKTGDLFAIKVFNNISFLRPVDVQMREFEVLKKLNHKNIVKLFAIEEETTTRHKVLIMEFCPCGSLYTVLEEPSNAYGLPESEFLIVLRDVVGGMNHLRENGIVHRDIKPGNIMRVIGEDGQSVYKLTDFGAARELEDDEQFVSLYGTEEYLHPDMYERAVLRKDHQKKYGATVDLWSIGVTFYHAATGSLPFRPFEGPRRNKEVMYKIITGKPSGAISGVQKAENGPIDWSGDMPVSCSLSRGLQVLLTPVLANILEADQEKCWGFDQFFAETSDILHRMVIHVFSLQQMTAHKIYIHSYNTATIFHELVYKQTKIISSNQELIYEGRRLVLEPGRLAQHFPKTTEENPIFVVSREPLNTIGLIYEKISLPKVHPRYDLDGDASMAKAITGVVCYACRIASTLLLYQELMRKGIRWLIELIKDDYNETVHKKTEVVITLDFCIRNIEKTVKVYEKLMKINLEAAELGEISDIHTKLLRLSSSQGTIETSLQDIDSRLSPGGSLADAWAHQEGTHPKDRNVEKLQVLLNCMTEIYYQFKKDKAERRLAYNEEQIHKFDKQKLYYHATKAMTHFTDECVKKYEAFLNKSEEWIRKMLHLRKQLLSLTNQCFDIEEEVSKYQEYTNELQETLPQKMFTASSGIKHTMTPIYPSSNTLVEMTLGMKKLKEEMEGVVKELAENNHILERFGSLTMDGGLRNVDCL

Chain of AURKC (Q9UQB9 whole entry): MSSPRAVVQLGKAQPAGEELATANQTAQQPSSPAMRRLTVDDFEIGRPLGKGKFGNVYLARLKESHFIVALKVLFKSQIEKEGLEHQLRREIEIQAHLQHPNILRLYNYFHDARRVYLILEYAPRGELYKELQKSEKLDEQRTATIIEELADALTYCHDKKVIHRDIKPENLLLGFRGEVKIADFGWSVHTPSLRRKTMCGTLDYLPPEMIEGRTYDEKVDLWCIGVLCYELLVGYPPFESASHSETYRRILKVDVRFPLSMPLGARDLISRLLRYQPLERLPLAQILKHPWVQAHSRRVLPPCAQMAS
T5 sequence (P45983 whole entry): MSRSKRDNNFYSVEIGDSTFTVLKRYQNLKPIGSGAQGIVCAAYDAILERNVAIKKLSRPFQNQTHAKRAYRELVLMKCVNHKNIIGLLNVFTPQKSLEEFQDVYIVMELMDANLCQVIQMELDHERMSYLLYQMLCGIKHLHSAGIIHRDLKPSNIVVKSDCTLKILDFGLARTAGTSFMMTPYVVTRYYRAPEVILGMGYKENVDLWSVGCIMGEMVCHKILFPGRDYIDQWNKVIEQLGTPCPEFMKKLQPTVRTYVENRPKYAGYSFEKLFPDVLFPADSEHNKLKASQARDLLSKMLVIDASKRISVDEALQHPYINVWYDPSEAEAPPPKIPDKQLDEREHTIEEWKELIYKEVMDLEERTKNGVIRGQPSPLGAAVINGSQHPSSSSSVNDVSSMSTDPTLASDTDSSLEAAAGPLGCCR
Chain of ANKK1 (Q8NFD2 whole entry): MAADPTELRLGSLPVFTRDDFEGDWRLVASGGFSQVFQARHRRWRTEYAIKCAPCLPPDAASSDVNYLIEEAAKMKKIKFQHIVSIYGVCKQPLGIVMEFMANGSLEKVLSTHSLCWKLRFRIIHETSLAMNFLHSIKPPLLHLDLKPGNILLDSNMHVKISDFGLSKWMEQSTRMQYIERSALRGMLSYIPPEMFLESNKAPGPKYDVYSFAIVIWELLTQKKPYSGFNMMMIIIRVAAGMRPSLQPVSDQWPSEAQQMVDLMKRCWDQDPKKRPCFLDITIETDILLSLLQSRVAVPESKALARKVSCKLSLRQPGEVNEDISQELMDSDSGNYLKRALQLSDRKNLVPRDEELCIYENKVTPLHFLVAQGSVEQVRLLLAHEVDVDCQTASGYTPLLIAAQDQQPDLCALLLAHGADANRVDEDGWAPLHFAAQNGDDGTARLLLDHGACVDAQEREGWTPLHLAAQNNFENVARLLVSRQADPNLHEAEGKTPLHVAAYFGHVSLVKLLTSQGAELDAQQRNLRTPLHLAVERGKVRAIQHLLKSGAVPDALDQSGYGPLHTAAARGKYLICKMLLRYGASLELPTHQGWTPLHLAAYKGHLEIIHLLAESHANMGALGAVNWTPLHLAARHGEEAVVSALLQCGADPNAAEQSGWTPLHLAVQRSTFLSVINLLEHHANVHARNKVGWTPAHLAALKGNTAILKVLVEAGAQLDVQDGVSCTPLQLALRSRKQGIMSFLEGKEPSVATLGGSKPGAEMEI
Chain of DAPK1 (P53355 whole entry): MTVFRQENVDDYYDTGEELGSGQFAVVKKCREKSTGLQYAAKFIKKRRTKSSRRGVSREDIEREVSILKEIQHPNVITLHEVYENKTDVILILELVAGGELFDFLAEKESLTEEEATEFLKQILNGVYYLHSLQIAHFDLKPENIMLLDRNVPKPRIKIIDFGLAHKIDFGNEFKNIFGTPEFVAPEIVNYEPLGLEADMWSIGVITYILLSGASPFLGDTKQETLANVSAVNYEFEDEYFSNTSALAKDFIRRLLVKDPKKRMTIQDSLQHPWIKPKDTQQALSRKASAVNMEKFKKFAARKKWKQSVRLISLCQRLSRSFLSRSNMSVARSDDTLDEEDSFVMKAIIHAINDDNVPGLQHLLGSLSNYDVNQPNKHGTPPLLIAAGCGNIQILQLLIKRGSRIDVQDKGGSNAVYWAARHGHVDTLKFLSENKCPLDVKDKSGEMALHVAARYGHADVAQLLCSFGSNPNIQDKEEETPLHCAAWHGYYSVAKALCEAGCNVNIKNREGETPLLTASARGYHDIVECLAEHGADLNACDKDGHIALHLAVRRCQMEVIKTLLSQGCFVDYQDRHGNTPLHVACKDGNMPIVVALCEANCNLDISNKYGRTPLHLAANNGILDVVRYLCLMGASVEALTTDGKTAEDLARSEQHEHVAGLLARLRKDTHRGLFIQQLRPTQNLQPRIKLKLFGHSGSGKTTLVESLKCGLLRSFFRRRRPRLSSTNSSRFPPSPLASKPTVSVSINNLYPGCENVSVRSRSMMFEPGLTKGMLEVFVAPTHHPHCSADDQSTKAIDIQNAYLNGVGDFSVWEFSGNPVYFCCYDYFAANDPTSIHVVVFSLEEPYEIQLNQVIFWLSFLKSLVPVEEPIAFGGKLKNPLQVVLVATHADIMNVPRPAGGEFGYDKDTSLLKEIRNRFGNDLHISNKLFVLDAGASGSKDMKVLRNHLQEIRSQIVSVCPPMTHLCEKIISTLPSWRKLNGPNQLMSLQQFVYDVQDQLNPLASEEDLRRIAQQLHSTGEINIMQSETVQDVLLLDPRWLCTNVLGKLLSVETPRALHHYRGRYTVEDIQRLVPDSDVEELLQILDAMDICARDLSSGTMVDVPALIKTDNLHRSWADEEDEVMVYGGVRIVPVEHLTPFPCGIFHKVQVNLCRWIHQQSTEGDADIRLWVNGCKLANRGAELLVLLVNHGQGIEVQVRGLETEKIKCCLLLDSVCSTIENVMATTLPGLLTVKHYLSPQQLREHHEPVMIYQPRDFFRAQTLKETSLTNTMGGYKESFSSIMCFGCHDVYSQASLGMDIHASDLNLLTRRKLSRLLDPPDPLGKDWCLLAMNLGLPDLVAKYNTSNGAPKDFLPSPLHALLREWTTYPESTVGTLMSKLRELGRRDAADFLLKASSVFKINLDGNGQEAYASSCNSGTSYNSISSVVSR
Chain of STK35 (Q8TDR2 whole entry): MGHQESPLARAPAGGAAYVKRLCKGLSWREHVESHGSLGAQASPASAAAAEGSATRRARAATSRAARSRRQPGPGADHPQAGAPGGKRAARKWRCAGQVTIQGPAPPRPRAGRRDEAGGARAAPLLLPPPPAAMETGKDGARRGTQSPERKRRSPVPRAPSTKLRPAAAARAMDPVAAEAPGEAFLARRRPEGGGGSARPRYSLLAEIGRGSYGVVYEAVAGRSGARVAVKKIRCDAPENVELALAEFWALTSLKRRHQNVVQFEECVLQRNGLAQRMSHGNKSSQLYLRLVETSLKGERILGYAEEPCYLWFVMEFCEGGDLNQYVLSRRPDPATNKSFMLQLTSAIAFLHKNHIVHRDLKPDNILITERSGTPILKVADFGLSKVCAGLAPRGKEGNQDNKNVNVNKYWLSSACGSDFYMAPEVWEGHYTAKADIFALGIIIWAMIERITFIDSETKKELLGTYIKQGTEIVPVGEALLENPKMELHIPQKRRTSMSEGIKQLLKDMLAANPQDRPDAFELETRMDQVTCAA
Chain of GRK4 (P32298 whole entry): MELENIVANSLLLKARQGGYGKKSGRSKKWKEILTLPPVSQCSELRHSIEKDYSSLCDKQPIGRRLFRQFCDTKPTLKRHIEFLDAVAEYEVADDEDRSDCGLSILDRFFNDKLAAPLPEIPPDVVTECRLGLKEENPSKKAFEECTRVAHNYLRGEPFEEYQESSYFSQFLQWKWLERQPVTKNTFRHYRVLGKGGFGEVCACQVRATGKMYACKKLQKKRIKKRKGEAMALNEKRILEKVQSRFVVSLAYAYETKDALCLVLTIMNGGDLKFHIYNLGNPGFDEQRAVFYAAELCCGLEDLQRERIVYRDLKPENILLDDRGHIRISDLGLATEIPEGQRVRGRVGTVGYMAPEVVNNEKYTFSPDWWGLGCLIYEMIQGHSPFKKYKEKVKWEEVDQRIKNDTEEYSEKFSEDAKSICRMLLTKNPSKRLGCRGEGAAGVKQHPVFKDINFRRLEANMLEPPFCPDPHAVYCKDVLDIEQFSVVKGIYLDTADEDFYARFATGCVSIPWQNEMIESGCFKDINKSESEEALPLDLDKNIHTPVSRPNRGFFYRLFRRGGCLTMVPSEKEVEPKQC

Cc1cn(-c2cc(NC(=O)c3ccc4c(c3)CN(c3cncnc3)C[C@@H]4C)cc(C(F)(F)F)c2)cn1 [Compound 6j]
remaining activity at 1 µM [1]: 74% | remaining activity at 1 µM (ACVR2B): 93% | remaining activity at 1 µM (ANKK1): 63% | remaining activity at 1 µM (AURKC): 100% | remaining activity at 1 µM (BRAF): 96% | remaining activity at 1 µM (BTK): 100% | remaining activity at 1 µM (CAMK1): 84% | remaining activity at 1 µM (CDC2L5): 100% | remaining activity at 1 µM (CDK9): 92% | remaining activity at 1 µM (DAPK1): 100% | remaining activity at 1 µM (EGFR(E746-A750del)): 94% | remaining activity at 1 µM (EPHB2): 85% | remaining activity at 1 µM (ERK3): 96% | remaining activity at 1 µM (FGFR1): 79% | remaining activity at 1 µM (FLT4): 96% | remaining activity at 1 µM (GCN2(Kin.Dom.2,S808G)): 100% | remaining activity at 1 µM (GRK4): 100% | remaining activity at 1 µM (HIPK1): 85% | remaining activity at 1 µM (IKK-beta): 100% | remaining activity at 1 µM (JNK1): 97% | remaining activity at 1 µM (KIT(D816H)): 100% | remaining activity at 1 µM (LRRK2(G2019S)): 100% | remaining activity at 1 µM (MEK1): 94% | remaining activity at 1 µM (MLK2): 98% | remaining activity at 1 µM (NLK): 61% | remaining activity at 1 µM (PIK3CG): 100% | remaining activity at 1 µM (PIP5K2C): 100% | remaining activity at 1 µM (PRKCE): 100% | remaining activity at 1 µM (PRKCH): 97% | remaining activity at 1 µM (RIOK3): 100% | remaining activity at 1 µM (ROS1): 86% | remaining activity at 1 µM [2]: 100% | remaining activity at 1 µM (SIK): 84% | remaining activity at 1 µM (STK35): 100% | remaining activity at 1 µM (TBK1): 95%
